Experimental data as given in patent US20240166646A1, “1H-PYRROLO[2,3-B]PYRIDINE DERIVATIVES AS BCL-2 INHIBITORS FOR THE TREATMENT OF NEOPLASTIC AND AUTOIMMUNE DISEASES” (Newave Pharmaceutical Inc., priority 2020, published 2024).
Where a name gives a salt, the structure may show the parent alone.

Assays:
[1] = system: BCL-2-dependent acute lymphoblastic leukemia (ALL) cell line RS4; 11 with G101V mutation; assay: In vitro anti-proliferation assay (ATPlite) in RS4; 11 with G101V mutation; assay type: cell-based; conditions: about 72 hours incubation, medium with 5% FBS or 10% normal human serum, ATPlite luminescence
Protocol: Cell antiproliferation was assayed by PerkinElmer ATPlite™ Luminescence Assay System. Briefly, the various test cancer cell lines were plated at a density of about 1×10^4 cells per well in Costar 96-well plates, and were incubated with different concentrations of compounds for about 72 hours in medium supplemented with 5% FBS or 10% normal human serum (NHS). One lyophilized substrate solution vial was then reconstituted by adding 5 mL of substrate buffer solution, and was agitated gently until the solution was homogeneous. About 50 μL of mammalian cell lysis solution was added to 100 μL of cell suspension per well of a microplate, and the plate was shaken for about five minutes in an orbital shaker at ˜700 rpm. This procedure was used to lyse the cells and to stabilize the ATP. Next, 50 μL substrate solution was added to the wells and microplate was shaken for five minutes in an orbital shaker at ˜700 rpm. Finally, the luminescence was measured by a PerkinElmer TopCount® Microplate Scintillation Counter. Such assays, carried out with a range of doses of test compounds, allowed the determination of the cellular anti-antiproliferative IC50 of the compounds of the present invention.

[2] = target: Bcl-2 (Homo sapiens (Human), UniProt P10415); assay: Bcl-2 competition binding (fluorescence polarization) assay; conditions: fluorescein labeled BH3 peptide 15 nM, Bcl-2 protein 30 nM, 3 hours of incubation at room temperature
Protocol: Biological Example 1: Bcl-2 Competition Binding (Fluorescence Polarization) Assay
The fluorescence-labeled 23 amino acid peptide BH3 was purchased from CalBiochem ([…]). […] This binding assay was performed in 96-well plate and with each assay contained 15 and 30 nM of labeled peptide and purified Bcl-2 protein (purchased from R&D Systems, Inc). The assay buffer contained 20 mM Hepes (pH 7.0), 50 mM KCl, 5 mM MgCl2, 20 mM Na2MoO4, 0.1 mg/mi Bovine Gamma Globulin and 0.01% NP40. Compounds were diluted in DMS0 and added to the final assay with concentration range from 20 μM to 2 nM. The polarization degree (mP) value was determined by BioTek Synergy II with background subtraction after 3 hours of incubation at room temperature. IC50 was calculated using Prism software with sigmoidal dose-response curve fitting. ABT-737 was used as reference compound. Such assays, carried out with a range of doses of test compounds, allowed the determination of an approximate IC50 value.

Bcl-2, sequence (P10415 whole entry): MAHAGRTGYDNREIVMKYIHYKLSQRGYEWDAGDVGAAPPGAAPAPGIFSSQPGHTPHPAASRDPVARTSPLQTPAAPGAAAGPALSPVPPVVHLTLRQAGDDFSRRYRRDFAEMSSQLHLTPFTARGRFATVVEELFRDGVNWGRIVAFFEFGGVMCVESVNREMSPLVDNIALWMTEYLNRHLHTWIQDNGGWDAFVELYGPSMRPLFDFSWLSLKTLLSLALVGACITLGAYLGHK

SMILES	IC50 [1] [nM]	IC50 [2] [nM]	IC50 ([1]; RS4-11) [nM]	IC50 ([1]; hydrochloride) [nM]	IC50 ([2]; hydrochloride) [nM]
Cc1ccccc1[C@@H]1CCCN1C1CC2(CCN(c3ccc(C(=O)NS(=O)(=O)c4ccc(NCC5CCC(C)(O)CC5)c([N+](=O)[O-])c4)c(N4c5cc6cc[nH]c6nc5O[C@@H]5COC[C@H]54)c3)CC2)C1 (stereo partly drawn) [Example 41, N-((4-((((1r,4r)-4-hydroxy-4-methylcyclohexyl)methyl)amino)-3-nitrophenyl)sulfonyl)-2-((5aR,8aS)-5a,6,8,8a-tetrahydrofuro[3,4-b]pyrrolo[3′,2′:5,6]pyrido[3,2-e][1,4]oxazin-5(1H)-yl)-4-(2-((S)-2-(o-tolyl)pyrrolidin-1-yl)-7-azaspiro[3.5]nonan-7-yl)benzamide]	14.7	0.18			
CC(C)Oc1ccccc1[C@@H]1CCCN1C1CC2(CCN(c3ccc(C(=O)NS(=O)(=O)c4ccc(NCC5CCOCC5)c([N+](=O)[O-])c4)c(N4c5cc6cc[nH]c6nc5O[C@H]5COC[C@H]54)c3)CC2)C1 [Example 54, 4-(2-((S)-2-(2-isopropoxyphenyl)pyrrolidin-1-yl)-7-azaspiro[3.5]nonan-7-yl)-N-((3-nitro-4-(((tetrahydro-2H-pyran-4-yl)methyl)amino)phenyl)sulfonyl)-2-((5aR,8aR)-5a,6,8,8a-tetrahydrofuro[3,4-b]pyrrolo[3′,2′:5,6]pyrido[3,2-e][1,4]oxazin-5(1H)-yl)benzamide]		0.586	> 1000		
CC(C)Oc1ccccc1[C@@H]1CCCN1C1CC2(CCN(c3ccc(C(=O)NS(=O)(=O)c4ccc(NCC5CCOCC5)c([N+](=O)[O-])c4)c(N4c5cc6cc[nH]c6nc5O[C@H]5COCC[C@@H]54)c3)CC2)C1 [Example 67, 2-[(3R,8S)-2,5-dioxa-9,15,17-triazatetracyclo[8.7.0.0^{3,8}.0^{12,16}]heptadeca-1(10),11,13,16-tetraen-9-yl]-4-{2-[(2S)-2-(2-isopropoxyphenyl)pyrrolidin-1-yl]-7-azaspiro[3.5]nonan-7-yl}-N-{3-nitro-4-[(oxan-4-ylmethyl)amino]benzenesulfonyl}benzamide hydrochloride]				50.6	0.229
CNc1ccccc1[C@@H]1CCCN1C1CC2(CCN(c3ccc(C(=O)NS(=O)(=O)c4ccc(NCC5CCOCC5)c([N+](=O)[O-])c4)c(N4c5cc6cc[nH]c6nc5O[C@@H]5COC[C@H]54)c3)CC2)C1 [Example 17, 2-[(11R,15S)-13,16-dioxa-2,4,10-triazatetracyclo[7.7.0.0^{3,7}.0^{11,15}]hexadeca-1(9),2,5,7-tetraen-10-yl]-4-{2-[(2S)-2-[2-(methylamino)phenyl]pyrrolidin-1-yl]-7-azaspiro[3.5]nonan-7-yl}-N-{3-nitro-4-[(oxan-4-ylmethyl)amino]benzenesulfonyl}benzamide]	99.5	0.225			
Cc1ccccc1C1CC(C)(C)CN1C1CC2(CCN(c3ccc(C(=O)NS(=O)(=O)c4ccc(NCC5CCOCC5)c([N+](=O)[O-])c4)c(N4c5cc6cc[nH]c6nc5O[C@@H]5COC[C@H]54)c3)CC2)C1 (stereo partly drawn) [Example 61, 4-{2-[4,4-dimethyl-2-(2-methylphenyl)pyrrolidin-1-yl]-7-azaspiro[3.5]nonan-7-yl}-2-[(11R,15S)-13,16-dioxa-2,4,10-triazatetracyclo[7.7.0.0^{3,7}.0^{11,15}]hexadeca-1(9),2,5,7-tetraen. 10-yl]-N-{3-nitro-4-[(oxan-4-ylmethyl)amino]benzenesulfonyl}benzamide]	130	0.707			
Cc1ccccc1[C@@H]1CCCN1C1CC2(CCN(c3ccc(C(=O)NS(=O)(=O)c4ccc(NCC5(F)CCOCC5)c([N+](=O)[O-])c4)c(N4c5cc6cc[nH]c6nc5O[C@@H]5COC[C@H]54)c3)CC2)C1 [Example 38, N-((4-(((4-fluorotetrahydro-2H-pyran-4-yl)methyl)amino)-3-nitrophenyl)sulfonyl)-2-((5aR,8aS)-5a,6,8,8a-tetrahydrofuro[3,4-b]pyrrolo[3′,2′:5,6]pyrido[3,2-e][1,4]oxazin-5(1H)-yl)-4-(2-((S)-2-(o-tolyl)pyrrolidin-1-yl)-7-azaspiro[3.5]nonan-7-yl)benzamide]		0.202	13.6		
Cc1ccccc1[C@@H]1COCCN1C1CC2(CCN(c3ccc(C(=O)NS(=O)(=O)c4ccc(NCC5CCOCC5)c([N+](=O)[O-])c4)c(N4c5cc6cc[nH]c6nc5O[C@@H]5COC[C@H]54)c3)CC2)C1 [Example 50, N-((3-nitro-4-(((tetrahydro-2H-pyran-4-yl)methyl)amino)phenyl)sulfonyl)-2-((5aR,8aS)-5a,6,8,8a-tetrahydrofuro[3,4-b]pyrrolo[3′,2′:5,6]pyrido[3,2-e][1,4]oxazin-5(1H)-yl)-4-(2-((R)-3-(o-tolyl)morpholino)-7-azaspiro[3.5]nonan-7-yl)benzamide]		0.265	71.8		
CC(C)c1cc(F)ccc1[C@@H]1CCCN1C1CC2(CCN(c3ccc(C(=O)NS(=O)(=O)c4ccc(NCC5CCOCC5)c([N+](=O)[O-])c4)c(N4c5cc6cc[nH]c6nc5O[C@@H]5COC[C@H]54)c3)CC2)C1 [Example 60, 2-[(11R,15S)-13,16-dioxa-2,4,10-triazatetracyclo[7.7.0.0^{3,7}.0^{11,15}]hexadeca-1(9),2,5,7-tetraen-10-yl]-4-{2-[(2S)-2-(4-fluoro-2-isopropylphenyl)pyrrolidin-1-yl]-7-azaspiro[3.5]nonan-7-yl}-N-{3-nitro-4-[(oxan-4-ylmethyl)amino]benzenesulfonyl}benzamide]	62.4	0.341			
Cc1ccccc1[C@@H]1CCCN1C1CC2(CCN(c3ccc(C(=O)NS(=O)(=O)c4ccc(NCC5CCC(C)(O)CC5)c([N+](=O)[O-])c4)c(N4c5cc6cc[nH]c6nc5O[C@@H]5COC[C@H]54)c3)CC2)C1 (stereo partly drawn) [Example 40, N-((4-((((1s,4s)-4-hydroxy-4-methylcyclohexyl)methyl)amino)-3-nitrophenyl)sulfonyl)-2-((5aR,8aS)-5a,6,8,8a-tetrahydrofuro[3,4-b]pyrrolo[3′,2′:5,6]pyrido[3,2-e][1,4]oxazin-5(1H)-yl)-4-(2-((S)-2-(o-tolyl)pyrrolidin-1-yl)-7-azaspiro[3.5]nonan-7-yl)benzamide]	34.7	0.2			
CC(C)Oc1ccccc1[C@@H]1CCCN1C1CC2(CCN(c3ccc(C(=O)NS(=O)(=O)c4ccc(NCC5CCOCC5)c([N+](=O)[O-])c4)c(N4c5cc6cc[nH]c6nc5O[C@@H]5COC[C@H]54)c3)CC2)C1 [Example 20, 2-[(11R,15S)-13,16-dioxa-2,4,10-triazatetracyclo[7.7.0.0^{3,7}.0^{11,15}]hexadeca-1(9),2,5,7-tetraen-10-yl]-4-{2-[(2S)-2-(2-isopropoxyphenyl)pyrrolidin-1-yl]-7-azaspiro[3.5]nonan-7-yl}-N-{3-nitro-4-[(oxan-4-ylmethyl)amino]benzenesulfonyl}benzamide]	60.4	0.299			
CC#Cc1ccccc1[C@@H]1CCCN1C1CC2(CCN(c3ccc(C(=O)NS(=O)(=O)c4ccc(NCC5CCOCC5)c([N+](=O)[O-])c4)c(N4c5cc6cc[nH]c6nc5O[C@@H]5COC[C@H]54)c3)CC2)C1 [Example 47, N-((3-nitro-4-(((tetrahydro-2H-pyran-4-yl)methyl)amino)phenyl)sulfonyl)-4-(2-((S)-2-(2-(prop-1-yn-1-yl)phenyl)pyrrolidin-1-yl)-7-azaspiro[3.5]nonan-7-yl)-2-((5aR,8aS)-5a,6,8,8a-tetrahydrofuro[3,4-b]pyrrolo[3′,2′:5,6]pyrido[3,2-e][1,4]oxazin-5(1H)-yl)benzamide]		0.307	288		
Cc1ccccc1[C@@H]1COCCCN1C1CC2(CCN(c3ccc(C(=O)NS(=O)(=O)c4ccc(NCC5CCOCC5)c([N+](=O)[O-])c4)c(N4c5cc6cc[nH]c6nc5O[C@@H]5COC[C@H]54)c3)CC2)C1 [Example 65, N-((3-nitro-4-(((tetrahydro-2H-pyran-4-yl)methyl)amino)phenyl)sulfonyl)-2-((5aR,8aS)-5a,6,8,8a-tetrahydrofuro[3,4-b]pyrrolo[3′,2′:5,6]pyrido[3,2-e][1,4]oxazin-5(1H)-yl)-4-(2-((R)-3-(o-tolyl)-1,4-oxazepan-4-yl)-7-azaspiro[3.5]nonan-7-yl)benzamide]		0.425	> 1000		
